Assay results as given in PubChem BioAssay AID248 (DTP/NCI, 2004).
Inconclusive results and toxic doses are left out.

Test system: L1210 leukemia ip in BDF1 mice, survival T/C
Test: NCI In Vivo Anticancer Drug Screen. Data for tumor model L1210 Leukemia (intraperitoneal) in B6D2F1 (BDF1) mice
Conditions: endpoint: mean survival time, higher = longer survival
Method in brief: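 Transplantable tumor model; survival measured in treated vs vehicle control mice. Value = treated/control.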

[1] = dose: 100.0 mg/kg/injection, schedule: Q01DX001 (ip), vehicle: Klucel (hydroxypropylcellulose) (HPC)
[2] = dose: 100.0 mg/kg/injection, schedule: Q01DX001 (ip), vehicle: other
[3] = dose: 100.0 mg/kg/injection, schedule: Q04DX003 (ip), vehicle: saline with Tween-80
[4] = dose: 200.0 mg/kg/injection, schedule: Q01DX001 (ip), vehicle: other
[5] = dose: 200.0 mg/kg/injection, schedule: Q04DX003 (ip), vehicle: saline with Tween-80
[6] = dose: 400.0 mg/kg/injection, schedule: Q01DX001 (ip), vehicle: other

O=C(Nc1ccccc1)N(C1CCCCC1)C1CCCCC1
T/C (dose: 100.0 mg/kg/injection, schedule: Q01DX009 (ip), vehicle: Klucel (hydroxypropylcellulose) (HPC)): 86 % of control | T/C (dose: 200.0 mg/kg/injection, schedule: Q01DX009 (ip), vehicle: Klucel (hydroxypropylcellulose) (HPC)): 88 % of control | T/C (dose: 400.0 mg/kg/injection, schedule: Q01DX009 (ip), vehicle: Klucel (hydroxypropylcellulose) (HPC)): 89 % of control

CN(C)c1ccc(C(=O)O)cc1
T/C (dose: 100.0 mg/kg/injection, schedule: Q01DX009 (ip), vehicle: other): 93 % of control | T/C (dose: 100.0 mg/kg/injection, schedule: Q04DX003 (ip), vehicle: other): 104 % of control | T/C (dose: 200.0 mg/kg/injection, schedule: Q01DX009 (ip), vehicle: other): 87 % of control | T/C (dose: 200.0 mg/kg/injection, schedule: Q04DX003 (ip), vehicle: other): 107 % of control | T/C (dose: 400.0 mg/kg/injection, schedule: Q01DX009 (ip), vehicle: other): 96 % of control | T/C (dose: 400.0 mg/kg/injection, schedule: Q04DX003 (ip), vehicle: other): 95 % of control

Cc1cccc(N2CCN(C(=S)c3ccccc3)CC2)c1
T/C (dose: 100.0 mg/kg/injection, schedule: Q01DX001 (ip), vehicle: saline): 93 % of control | T/C (dose: 200.0 mg/kg/injection, schedule: Q01DX001 (ip), vehicle: saline): 93 % of control | T/C (dose: 400.0 mg/kg/injection, schedule: Q01DX001 (ip), vehicle: saline): 98 % of control

Cc1ccc(S(=O)(=O)N(CCCc2c(C)nc(N)nc2Cl)c2ccccc2)cc1
T/C [1]: 86 % of control | T/C (dose: 400.0 mg/kg/injection, schedule: Q01DX001 (ip), vehicle: Klucel (hydroxypropylcellulose) (HPC)): 93 % of control

CCOc1ccc(-n2c(O)c(N=Nc3ccc(Br)cc3)c(=O)n(-c3ccc(OC)cc3)c2=S)cc1
T/C (dose: 50.0 mg/kg/injection, schedule: Q01DX001 (ip), vehicle: Klucel (hydroxypropylcellulose) (HPC)): 94 % of control | T/C [1]: 94 % of control | T/C (dose: 200.0 mg/kg/injection, schedule: Q01DX001 (ip), vehicle: Klucel (hydroxypropylcellulose) (HPC)): 94 % of control

CC(=O)Oc1ccc2c(=O)c(-c3ccccc3)c(C)oc2c1
T/C [2]: 108 % of control | T/C [3]: 100 % of control | T/C [4]: 111 % of control | T/C [5]: 108 % of control | T/C [6]: 94 % of control | T/C (dose: 400.0 mg/kg/injection, schedule: Q04DX003 (ip), vehicle: saline with Tween-80): 105 % of control

CN(C)N=Nc1c(Cl)cc(Cl)cc1C(N)=O
T/C (dose: 100.0 mg/kg/injection, schedule: Q01DX001 (ip), vehicle: saline with Tween-80): 108 % of control | T/C (dose: 100.0 mg/kg/injection, schedule: Q01DX009 (ip), vehicle: saline with Tween-80): 111 % of control | T/C [3]: 106 % of control | T/C (dose: 133.0 mg/kg/injection, schedule: Q01DX009 (ip), vehicle: saline with Tween-80): 123 % of control | T/C (dose: 200.0 mg/kg/injection, schedule: Q01DX001 (ip), vehicle: saline with Tween-80): 111 % of control | T/C (dose: 200.0 mg/kg/injection, schedule: Q01DX009 (ip), vehicle: saline with Tween-80): 165 % of control | T/C (dose: 200.0 mg/kg/injection, schedule: Q01DX009 (ip), vehicle: saline): 115 % of control | T/C [5]: 110 % of control | T/C (dose: 300.0 mg/kg/injection, schedule: Q01DX009 (ip), vehicle: saline with Tween-80): 150 % of control | T/C (dose: 300.0 mg/kg/injection, schedule: Q01DX009 (ip), vehicle: saline): 100 % of control | T/C (dose: 400.0 mg/kg/injection, schedule: Q01DX001 (ip), vehicle: saline with Tween-80): 117 % of control

Oc1ccccc1N=Cc1c(O)ccc2ccccc12
T/C [2]: 96 % of control | T/C [4]: 98 % of control | T/C [6]: 101 % of control

COC(=O)c1cc(S(=O)(=O)c2cc(C)c(O)c(C(=O)OC)c2)cc(C)c1O
T/C (dose: 100.0 mg/kg/injection, schedule: Q04DX002 (ip), vehicle: carboxymethylcellulose (CMC)): 92 % of control | T/C (dose: 200.0 mg/kg/injection, schedule: Q04DX002 (ip), vehicle: carboxymethylcellulose (CMC)): 95 % of control | T/C (dose: 400.0 mg/kg/injection, schedule: Q04DX002 (ip), vehicle: carboxymethylcellulose (CMC)): 95 % of control
